# Data taken from patent US20210052701A1, “Methods of Treating Vascular Leakage Using CXCL12 Peptides” (The Medical College of Wisconsin, Inc., priority 2018, published 2021).
# Entries after “also recorded” stand apart in the source; their conditions may differ.
# What was measured:
# [1] = test system: hPPAEC; test: Effects of CXCR4 agonists / CXCL12 variants on thrombin-induced impairment of hPPAEC monolayer permeability; format: cell-based, human
# Outline: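 Confluent hPPAEC monolayers on collagen-coated permeable membranes were exposed to 35 nM thrombin; 10 min later, agonists or CXCL12 variants (0.05–50 nM) were added, ± AMD3100 10 μM. FITC-dextran (20 μg/mL) crossing the monolayer was read by fluorescence over 255 min. % inhibition of hyperpermeability was taken at 255 min; N=3 in quadruplicate.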
# [2] = test system: animal model of acute respiratory distress syndrome (ARDS); test: Animal model of ARDS: lung ischemia reperfusion injury plus hemorrhage (P:F ratio, lung injury score); format: in vivo, Sprague-Dawley rats
# Protocol: Animals underwent 70 min of […] lung ischemia for 70 min plus hemorrhage to a MAP of 40 mmHg for the last 30 min of ischemia, followed by fluid resuscitation to a MAP of 60 mmHg until t=300 min. Arrow: drug injection. Dashed lines indicate the P:F ratio (mmHg) threshold values for the diagnosis of mild, moderate and severe ARDS. Vehicle: n=5. CXCL12: n=3. CXCL12: n=4. CXCL12-LM: n=3, CXCL12-LD: n=4. CXCL12 K27A/R41A/R47A: n=3. LI+HEM: lung ischemia reperfusion injury plus hemorrhage. Data are mean±SEM. *: p<0.05 vs. vehicle (2-way ANOVA/Dunnett's multiple comparisons test).
# FIGS. 12A-12C show lung histology after treatment with CXCL12 and engineered CXCR4 agonists A. Lung specimens were placed in formalin fixative solution and were then embedded in paraffin wax, sliced into 5 μm sections and stained with H&E. Representative images from H&E stained lung sections from animals after vehicle (left) and CXCL12 ([…], right treatment. B/C. Lung injury scores (B. uninjured (left) lung; C. injured (right) lung). Data are median±interquartile ranges. Data were analyzed with the Kruskal Wallis test with Dunn's multiple comparisons test. The level of statistical significance (p) vs. ctrl. (vehicle treatment) indicated.
# We tested therapeutic efficacy of wild-type CXCL12, CXXL12-locked dimer (LD), CXCL12-locked monomer (LM) and the triple mutant CXCL12 K27A/R41A/R47A in an animal model of acute respiratory distress syndrome (ARDS) (FIG. 11). All drugs were injected in a dose of 0.14 μmol/kg. Male Sprague-Dawley rats were anesthetized, orotracheally intubated, instrumented with arterial/venous catheters, and mechanically ventilated (PEEP 2 mmHg, FiO2 1.0). After a right lateral thoracotomy, a suture was tied around the hilum of the right lung. Animals underwent 70 min of right lung ischemia plus hemorrhage to a mean arterial blood pressure (MAP) of 40 mmHg for the last 30 min of lung ischemia. At t=70 min, the suture was removed, animals were ventilated with FiO2 1.0, PEEP 5 mmHg and resuscitated with crystalloids to a MAP of 60 mmHg until t=300 min. Vehicle and drugs were injected i.v. within 10 min after reperfusion.
# We further evaluated histomorphology of the lungs from animals treated with vehicle, wild-type CXCL12, CXCL12-LD and CXCXL12-LM utilizing a standardized lung injury score. Lung slides stained with hematoxylin and eosin were examined under a light microscope by 4 investigators blinded to the identity of the specimens. The lung injury score was assessed as previously described/. In brief each investigator rendered a score of 0 (no damage) to 4+(maximal damage) based on an injury grading scale composed of six criteria. The slides were assessed for the extent of alveolar congestion, hemorrhage and edema, as well as alveolar and vessel wall PMN infiltration and alveolar wall thickness. […] Lung injury scores of the uninjured and injured lungs from animals treated with vehicle, wild-type CXCL12, CXCL12-LD and CXCXL12-LM are shown in FIGS. […], respectively.
substance,measurement,setting,value
"CXCL12: Wild-type CXCL12 (SEQ ID NO:1), cognate agonist of CXCR4 and ACKR3",effect of pre-treatment on thrombin-induced hyper-permeability of hPPAEC,"[1]; 100 nM for 10 min, then thrombin (50 nM)",significantly attenuated thrombin-induced hyper-permeability of hPPAEC; also recorded: more efficacious than ubiquitin
same,effect on thrombin-induced permeability of hPPAEC when added after thrombin,"[1]; thrombin 35 nM, after 10 min CXCL12 or ubiquitin 50 nM, AMD3100 10 μM",significantly attenuated thrombin-induced permeability of hPPAEC
same,development of ARDS (P:F ratio),"[2]; 0.14 μmol/kg i.v. within 10 min after reperfusion, until t=300 min",development of ARDS was delayed and attenuated
same,time at which criteria for mild ARDS were fulfilled,"[2]; 0.14 μmol/kg i.v., P:F ratio<300 mmHg",300 min
same,P:F ratios compared with vehicle treated animals,"[2]; 0.14 μmol/kg i.v., t=90-240 min",significantly higher
same,"histological signs of lung injury, injured lung (lung injury score)","[2]; H&E sections, vs. vehicle",significantly reduced
